Columns and labels:
Test in all cases: agar diffusion method using a paper disk
[1] = system: Bacillus subtilis (KCTC1021); conditions: 2.5 mg/ml, 48 hours
Procedure: (§1) In order to measure the antibacterial activities of the Cannabis sativa L. extract (CE) and extract mixtures AM1 to AM6 produced in Production Example 1, a modification of the agar diffusion method (Piddock, L. J. V, Techniques used for the determination of antimicrobial resistance and sensitivity in bacteria, J. Appl. Bacteriol, 68, p. 307, 1990) using a paper disk was performed as follows.
(§2) The bacterial strains were used after subculture (Candida albicans: 24° C., Bacillus subtilis: 30° C., Streptococcus mutans: 37° C., Staphylococcus aureus: 37° C., and Escherichia coli: 37° C.).
(§3) One loop of each of the prepared strains was taken and inoculated in 5 ml of saline, and 1 ml of each of the active solutions was inoculated into a 4 to 5-mm-thick medium (Candida albicans—YM Agar (271210. BD), Bacillus subtilis—Nutrient Agar (213000 BD), Streptococcus mutans—Brain Heart (241830 BD), Staphylococcus aureus—Tryptic Soy Agar (236950 BD), Escherichia coli—Nutrient Agar (213000 BD); incubator: EYELA Multi-Thermo incubator MTI-202), and then spread evenly with a bent glass rod. […]
(§4) The solvent of each injected extract mixture was volatilized, and incubation was performed at 37° C. for 48 hours. Then, the diameter of the inhibition zone formed around each paper disc was measured. […]

[2] = system: Candida albicans (KCTC7270); conditions: 2.5 mg/ml, 48 hours
Procedure: as §1, §2, §3, §4

[3] = system: Escherichia coli (KCTC7039); conditions: 2.5 mg/ml, 48 hours
Procedure: as §1, §2, §3, §4

[4] = system: Staphylococcus aureus (KCTC1621); conditions: 2.5 mg/ml, 48 hours
Procedure: as §1, §2, §3, §4

[5] = system: Streptococcus mutans (KCTC3065)
Procedure: as §1, §2, §3, §4

COc1ccc(O)c(C(C)(C)C)c1 [BHA, butylated hydroxyanisole]
Inhibition zone [1]: 16.6 mm
Inhibition zone [2]: 16.0 mm
Inhibition zone [3]: 18.4 mm
Inhibition zone [4]: 16.0 mm
Inhibition zone ([5]; Streptococcus mutans, 2.5 mg/ml, 48 hours): 3.5 mm
antibacterial effect (in words) ([5]; against S. mutans): little antibacterial effect

— patent publication US20220016193A1, “ANTIBACTERIAL AND ANTIVIRUS COMPOSITION COMPRISING Extract of CANNABIS SATIVA L” (FAMENITY CO., LTD., priority 2020, published 2022)
